Data on 3 molecules can be found in patent US7608577B2, “Peptidyl ketones as inhibitors of DPIV” (OSI Pharmaceuticals, Inc., priority 2001, dated 2009).

One assay relates to diabetic Zucker rats. Put plainly: Glucose tolerance (OGTT) in diabetic Zucker rats. The assay is classed as in vivo, Zucker rats (fa/fa). To be noted: for Improvement: vs AUC control. As for the experimental part: N=30 male Zucker rats (fa/fa), mean age 11 weeks (5-12 weeks), mean body weight 350 g (150-400 g), were purchased from Charles River (Sulzfeld, Germany). They were kept for >12 weeks until all the fatty Zucker rats had the characteristics of manifest Diabetes mellitus.
Animals were kept single-housed under conventional conditions with controlled temperature (22±2° C.) on a 12/12 hours light/dark cycle (light on at 06:00 a.m.). Standard pellets (ssniff®, Soest, Germany) and tap water acidified with HCl were allowed ad libitum.
Fatty Zucker rats, 17-24 weeks old, adapted to the housing conditions, were well prepared for the tests. Catheters were implanted into the carotid artery of fatty Zucker rats under general anaesthesia (i.p. injection of 0.25 ml/kg b.w. Rompun® [2%], BayerVital, Germany and 0.5 ml/kg b.w. Ketamin 10, Atarost GmbH & Co., Twistringen, Germany). The animals were allowed to recover for one week. The catheters were flushed with heparin-saline (100 IU/ml) three times per week. In case of catheter dysfunction, a second catheter was inserted into the contra-lateral carotid artery of the respective rat. After one week of recovery from surgery, this animal was reintegrated into the study. In case of dysfunction of the second catheter, the animal was withdrawn from the study. A new animal was recruited and the experiments were continued in the planned sequence, beginning at least 7 days after catheter implantation.
Fatty Zucker rats with intact catheter function were given in random order placebo (1 ml saline, 0.154 mol/l; N=9 animals as control), or test substance, solved in 1 ml saline (N=6 animals in each test group).
After overnight fasting, the fatty Zucker rats were given placebo and test substance, respectively, via feeding tube orally (15 G, 75 mm; Fine Science Tools, Heidelberg, Germany) at −10 min. An oral glucose tolerance test (OGTT) with 2 g/kg b.w. glucose as a 40% solution (B. Braun Melsungen, Melsungen, Germany) was implemented at ±0 min. The glucose was administered via a second feeding tube. Arterial blood samples from the carotid catheter were collected at −30 min, −15 min, ±0 min and at 5, 10, 15, 20, 30, 40, 60, 90 and 120 min into 20 μl glass capillaries, which were placed in standard tubes filled with 1 ml solution for hemolysis (blood glucose measurement). […]
Blood glucose: Glucose levels were measured using the glucose oxidase procedure (Super G Glukosemeβgerät; Dr. Müller Gerätebau, Freital, Germany).

Assay [1] has as its target T1, dipeptidyl peptidase IV from porcine kidney (Sus scrofa, UniProt P22411).
T1 construct: dipeptidyl peptidase IV from porcine kidney with a specific activity against glycylprolyl-4-nitroaniline of 37.5 U/mg; from tissue; host or cells: porcine kidney
Put plainly: Ki determination, DPIV inhibition (inhibitor released from prodrug by APN). It counts as biochemical. To be noted: for Ki: porcine kidney DPIV, substrate Gly-Pro-pNA, APN added to release inhibitor, HEPES pH7.6, read-out: Ki; for T1/2 (half-life, from enzyme activity versus reaction time): same assay as Ki, unstable competitive inhibitor. As for the experimental part:
500 μl test compound in a concentration range of 1*10^−5 M-1*10^−11M were admixed with and 500 μl HEPES buffer (40 mM, pH7.6; ion strength=0.125) and 20 μl of diluted DPIV. Release of the inhibitor from the prodrug as well the monitoring reaction (DPIV-catalyzed hydrolysis of Gly-Pro-pNA) were started by addition of a mixture of 10 μl of APN stock solution (4.9 mg/ml, Sigma, Taufkirchen, Germany) with 250 μl of the substrate (Gly-Pro-pNA, 0.05-4 mM). Development of yellow color due to 4-nitroaniline release were monitored at λ=405 nm for up to 180 min using UV1 Spectrometer (ThermoSpectronic).
The Ki-values were calculated by fitting the first derivative of the time-progress curves using Graphit (v.4.0.13, Erithacus Software, Ltd, UK) and an equation for an unstable competitive inhibitor.
The half-life (t1/2) was calculated by plotting the enzyme activity versus reaction time.

Assay [2] addresses T2, Prolidase from porcine kidney (Sus scrofa, UniProt A0A5G2QQV1).
T2 sequence (A0A5G2QQV1 1-463): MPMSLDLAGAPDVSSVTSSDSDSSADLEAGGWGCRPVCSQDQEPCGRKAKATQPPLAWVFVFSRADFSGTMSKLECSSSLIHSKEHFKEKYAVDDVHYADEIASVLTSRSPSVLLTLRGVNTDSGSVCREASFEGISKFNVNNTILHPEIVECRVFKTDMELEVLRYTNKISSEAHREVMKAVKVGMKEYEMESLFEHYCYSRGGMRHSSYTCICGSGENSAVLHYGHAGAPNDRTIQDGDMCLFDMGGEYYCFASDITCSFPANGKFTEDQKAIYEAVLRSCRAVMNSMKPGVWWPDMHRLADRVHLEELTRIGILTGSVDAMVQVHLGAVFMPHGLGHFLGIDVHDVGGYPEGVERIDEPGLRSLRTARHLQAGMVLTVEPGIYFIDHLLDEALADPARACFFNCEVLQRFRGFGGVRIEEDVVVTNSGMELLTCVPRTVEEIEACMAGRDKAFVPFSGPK
Put plainly: Cross reacting enzymes: prolidase. It counts as biochemical. To be noted: substrate Ile-Pro-OH, pH 7.6. As for the experimental part:
Prolidase from porcine kidney (ICN Biomedicals, Eschwege, Germany) was solved (1 mg/ml) in assay buffer (20 mM NH4(CH3COO)2, 3 mM MnCl2, pH 7.6). In order to get a fully active enzyme the solution was incubated for 60 min at room temperature.
450 μl solution with the test compounds in an concentration range of 5*10^−3 M-5*10^−7 M were admixed with 500 μl buffer solution (20 mM NH4(CH3COO)2, pH 7.6) and 250 μl Ile-Pro-OH (0.5 mM in the assay mixture). The assay mixture was pre-incubated at 30° C. for 5 min. After pre-incubation, 75 μl Prolidase (1:10 diluted in assay buffer) was added and measurement was performed at 30° C. and λ=220 nm for 20 min using a UV/Vis photometer, UV1 (Thermo Spectromc, Cambridge, UK).
The IC 50-values were calculated using Graphit 4.0.15 (Erithacus Software, Ltd., UK).

T1 sequence (P22411 whole entry): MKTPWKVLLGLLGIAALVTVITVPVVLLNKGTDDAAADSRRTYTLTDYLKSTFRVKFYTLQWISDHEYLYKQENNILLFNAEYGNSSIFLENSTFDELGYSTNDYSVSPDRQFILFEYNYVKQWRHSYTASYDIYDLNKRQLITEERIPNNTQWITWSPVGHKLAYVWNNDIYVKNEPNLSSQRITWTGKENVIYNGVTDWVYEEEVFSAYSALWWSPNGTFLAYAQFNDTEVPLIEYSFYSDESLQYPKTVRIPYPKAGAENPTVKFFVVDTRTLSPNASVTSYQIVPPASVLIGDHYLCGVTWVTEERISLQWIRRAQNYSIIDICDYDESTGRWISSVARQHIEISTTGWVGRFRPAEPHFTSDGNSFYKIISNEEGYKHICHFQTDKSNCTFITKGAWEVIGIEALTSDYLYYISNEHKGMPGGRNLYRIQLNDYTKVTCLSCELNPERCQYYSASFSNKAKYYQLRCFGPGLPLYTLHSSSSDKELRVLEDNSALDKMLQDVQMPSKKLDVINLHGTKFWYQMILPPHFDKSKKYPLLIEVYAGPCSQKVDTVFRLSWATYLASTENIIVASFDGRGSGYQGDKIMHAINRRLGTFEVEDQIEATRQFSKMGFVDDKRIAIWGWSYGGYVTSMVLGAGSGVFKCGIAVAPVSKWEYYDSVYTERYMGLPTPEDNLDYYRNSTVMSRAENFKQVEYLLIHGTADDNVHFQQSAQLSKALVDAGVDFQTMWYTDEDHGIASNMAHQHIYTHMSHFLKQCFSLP

In general, Ki refers to the dissociation constant of the complex between target and ligand, obtained from inhibition or displacement. As for `Br.CC(=O)OCC(=O)[C@@H]1CCCN1C(=O)[C@@H](NC(=O)[C@H](C)N)C(C)C` [H-Ala-Val-Pro-CH2O—CO—CH3*HBr, 2-[(Acetyloxy-methyl)carbonyl]-1-N-[(L)-Alanyl-(L)-Valinyl]-(2S)-pyrrolidine hydrobromide], in the assay on diabetic Zucker rats (OGTT, 5 mg/kg b.w. oral), the AUC test compound was 309.1 mmol·min/L and the Improvement is 44.9%. Besides, in the assay on diabetic Zucker rats (OGTT, 15 mg/kg b.w. oral), the AUC test compound came to 300.9 mmol·min/L and the Improvement was found to be 46.4%. In the assay on diabetic Zucker rats (OGTT, 50 mg/kg b.w. oral), this molecule came in with an AUC test compound of 254.7 mmol·min/L and an Improvement of 54.6%. For the same molecule, in assay [1], the Ki amounted to 1.05 nM and the “T1/2 (half-life, from enzyme activity versus reaction time)” value is given as 10.8 min. Further, in assay [2], the “Prolidase IC50” value was “no inhibition”.
One may read the IC50 as the concentration that inhibits the measured activity by half. On to `Br.CC(C)[C@H](NC(=O)[C@H](C)N)C(=O)N1CCC[C@H]1C(=O)COC(=O)c1ccccc1` [H-Ala-Val-Pro-CO—CH2O—CO—Ph*HBr, 2-[(Benzoyloxy-methyl)carbonyl]-1-N-[{(L)-Alanyl}-(L)-Valinyl]-(2S)-pyrrolidine hydrobromide], for which, in the assay with diabetic Zucker rats (OGTT, 5 mg/kg b.w. oral), the AUC test compound came to 209.1 mmol·min/L and the Improvement came to 59.5%. In addition, in the assay with diabetic Zucker rats (OGTT, 15 mg/kg b.w. oral), the AUC test compound amounted to 245.4 mmol·min/L and the Improvement is listed as 52.6%. In the assay on diabetic Zucker rats (OGTT, 50 mg/kg b.w. oral), this molecule registered an AUC test compound of 160.5 mmol·min/L and an Improvement of 69.0%. Also, in assay [1], the Ki turned out to be 0.536 nM and the “T1/2 (half-life, from enzyme activity versus reaction time)” value came out at 15.1 min. Moreover, the IC50 in assay [2] turned out to be 414000 nM.
With `Br.CC(=O)[C@@H]1CCCN1C(=O)[C@@H](NC(=O)[C@H](C)N)C(C)C` [H-Ala-Val-Pro-Me*HBr, 2-Methylcarbonyl-1-N-[(L)-Alanyl-(L)-Valinyl]-(2S)-pyrrolidine hydrobromide], the AUC test compound with diabetic Zucker rats (OGTT 2 g/kg glucose, 100 mg/kg b.w. oral) came to 394.4 mmol·min/L. The molecule further showed an Improvement in the assay on diabetic Zucker rats (OGTT, 100 mg/kg b.w. oral) of 48.5%. Moreover, in assay [1], the Ki came out at 47.6 nM and the “T1/2 (half-life, from enzyme activity versus reaction time)” value is 12.4 min. Also, the IC50 in assay [2] amounted to 413000 nM.
